Numbers after ± are expanded uncertainties.
What was measured:
[1] = Crystal; DTA
[2] = Molar enthalpy of transition or fusion; details: Crystal; DSC

Normal melting temperature [1]: 57.01 ± 0.39 °C
Molar enthalpy of transition or fusion [2]: 3.91 ± 0.108 kcal/mol
Structure (SMILES): CCCCn1cc[n+](C)c1.Cc1ccc(S(=O)(=O)[O-])cc1 [1-butyl-3-methylimidazolium tosylate]

Reference: the NIST ThermoML archive (doi:10.1016/j.jct.2009.09.006)
